Compound in assay [1]: C1=CC2=NC=CN=C2C=C1/C=C/3\C(=O)NC(=O)S3 + CC1(C)CCC(c2ccc(Cl)cc2)=C(CN2CCN(c3ccc(C(=O)NS(=O)(=O)c4ccc(N[C@H](CCN5CCOCC5)CSc5ccccc5)c(S(=O)(=O)C(F)(F)F)c4)cc3)CC2)C1 [Navitoclax] (partner 0.5 µM)
Put plainly: relative viability (nuclei count vs DMSO), 5 days (fraction); higher = more cells survive. The procedure, abridged:
(§1)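 Lung cancer cell lines were seeded in 1536-well plates and dosed by pin tool the next day, with either a single drug or a fixed anchor-drug dose combined with five library-drug doses (not always all listed) spaced in √10 steps. Five days later, one step fixed the cells and stained their nuclei (final 0.05% Triton X-100, 1% formaldehyde, 1 ug/ml Hoechst), and nuclei were counted on 4× images. Relative viability is the nuclei count in treated wells divided by the count in vehicle wells, and each value is the median of duplicate plates.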

Compound in assay [2]: CCN1CCN(c2ccc(Nc3cc(N(C)C(=O)Nc4c(Cl)c(OC)cc(OC)c4Cl)ncn3)cc2)CC1 [BGJ398] + COc1cc2c(Oc3ccc(NC(=O)C4(C(=O)Nc5ccc(F)cc5)CC4)cc3F)ccnc2cc1OCCCN1CCOCC1 [Foretinib] (partner 0.25 µM)
The description is as above. In a few lines: as §1

The values that follow come from the supplement of paper PMC10307832.

As to NCI-H2405, the relative viability in assay [1] (first compound 0.02 µM) came to 0.751; in assay [1] (first compound 0.06325 µM), 1.14; in assay [1] (first compound 0.2 µM), 0.938; in assay [1] (first compound 0.6325 µM) it was 0.947; in assay [1] (first compound 2 µM), 0.755; in assay [2] (first compound 0.01 µM), 1.03. Moreover, the relative viability is 1.1 in assay [2] (first compound 0.03162 µM), 1.1 in assay [2] (first compound 0.1 µM), 1.09 in assay [2] (first compound 0.3162 µM) and 0.972 in assay [2] (first compound 1 µM).

As to NCI-H322M, the relative viability in assay [1] (first compound 0.02 µM) was determined as 1.05; in assay [1] (first compound 0.06325 µM) it was 1.12; in assay [1] (first compound 0.2 µM), 1.35; in assay [1] (first compound 0.6325 µM) it was 1.11; in assay [1] (first compound 2 µM), 1.16; in assay [2] (first compound 0.01 µM), 1.03. The relative viability in assay [2] (first compound 0.03162 µM) is 0.896; in assay [2] (first compound 0.1 µM), 1.07; in assay [2] (first compound 0.3162 µM) it was 0.966; in assay [2] (first compound 1 µM), 0.958.

For NCI-H2170, the relative viability was 0.527 in assay [1] (first compound 0.02 µM); 0.521 in assay [1] (first compound 0.06325 µM); 0.607 in assay [1] (first compound 0.2 µM); 0.563 in assay [1] (first compound 0.6325 µM); 0.501 in assay [1] (first compound 2 µM); 1.02 in assay [2] (first compound 0.01 µM). Besides, the relative viability in assay [2] (first compound 0.03162 µM) amounted to 1.04; in assay [2] (first compound 0.1 µM) it was 1.06; in assay [2] (first compound 0.3162 µM), 0.977; in assay [2] (first compound 1 µM) it was 1.04.

For NCI-H1395, the relative viability was 1.13 in assay [1] (first compound 0.02 µM); 1.42 in assay [1] (first compound 0.06325 µM); 1.21 in assay [1] (first compound 0.2 µM); 1.17 in assay [1] (first compound 0.6325 µM); 1.02 in assay [1] (first compound 2 µM); 0.877 in assay [2] (first compound 0.01 µM). Also, the relative viability in assay [2] (first compound 0.03162 µM) is 0.955; in assay [2] (first compound 0.1 µM), 0.819; in assay [2] (first compound 0.3162 µM) it was 0.756; in assay [2] (first compound 1 µM), 0.614.

Regarding IA-LM, the relative viability in assay [1] (first compound 0.02 µM) amounted to 0.71; in assay [1] (first compound 0.06325 µM), 0.943; in assay [1] (first compound 0.2 µM), 0.91; in assay [1] (first compound 0.6325 µM) it was 0.96; in assay [1] (first compound 2 µM), 0.845; in assay [2] (first compound 0.01 µM), 1.2. Besides, the relative viability is 1.08 in assay [2] (first compound 0.03162 µM), 1.42 in assay [2] (first compound 0.1 µM), 1.15 in assay [2] (first compound 0.3162 µM) and 1.14 in assay [2] (first compound 1 µM).

NCI-H838: the relative viability amounted to 1.1 in assay [1] (first compound 0.02 µM); 1.32 in assay [1] (first compound 0.06325 µM); 1.13 in assay [1] (first compound 0.2 µM); 1.02 in assay [1] (first compound 0.6325 µM); 1.11 in assay [1] (first compound 2 µM); 0.927 in assay [2] (first compound 0.01 µM). Further, the relative viability in assay [2] (first compound 0.03162 µM) worked out at 1.08; in assay [2] (first compound 0.1 µM), 0.962; in assay [2] (first compound 0.3162 µM) it was 0.889; in assay [2] (first compound 1 µM), 0.914.

Consider CAL-12T, for which the relative viability is 1.3 in assay [1] (first compound 0.02 µM); 1.13 in assay [1] (first compound 0.06325 µM); 1.09 in assay [1] (first compound 0.2 µM); 1.24 in assay [1] (first compound 0.6325 µM); 1.49 in assay [1] (first compound 2 µM); 1.04 in assay [2] (first compound 0.01 µM). Also, the relative viability was determined as 1.13 in assay [2] (first compound 0.03162 µM), 1.04 in assay [2] (first compound 0.1 µM), 1.11 in assay [2] (first compound 0.3162 µM) and 1.12 in assay [2] (first compound 1 µM).

As for EBC-1, the relative viability in assay [1] (first compound 0.02 µM) is 0.43; in assay [1] (first compound 0.06325 µM) it was 0.437; in assay [1] (first compound 0.2 µM) it was 0.545; in assay [1] (first compound 0.6325 µM), 0.38; in assay [1] (first compound 2 µM), 0.51; in assay [2] (first compound 0.01 µM) it was 0.0959. Besides, the relative viability in assay [2] (first compound 0.03162 µM) came to 0.0812; in assay [2] (first compound 0.1 µM) it was 0.0909; in assay [2] (first compound 0.3162 µM), 0.109; in assay [2] (first compound 1 µM), 0.108.
